Experimental data from patent US20220340597A1, “HEXAHYDRO-1H-PYRAZINO[1,2-A]PYRAZINE COMPOUNDS FOR THE TREATMENT OF AUTOIMMUNE DISEASE” (Hoffmann-La Roche Inc., priority 2019, published 2022).

These compounds were tested against T1, human TLR9 (Homo sapiens, UniProt Q9NR96) (assay: HEK293-Blue-hTLR-9 cells assay). Details: HEK293-Blue-hTLR9 cells, ODN2006 stimulation, 20 hrs, SEAP reporter; read-out: HEK/hTLR9 IC50.
T1 construct: host or cells: HEK293 (HEK-Blue hTLR9)
T1 sequence (Q9NR96 26-1032): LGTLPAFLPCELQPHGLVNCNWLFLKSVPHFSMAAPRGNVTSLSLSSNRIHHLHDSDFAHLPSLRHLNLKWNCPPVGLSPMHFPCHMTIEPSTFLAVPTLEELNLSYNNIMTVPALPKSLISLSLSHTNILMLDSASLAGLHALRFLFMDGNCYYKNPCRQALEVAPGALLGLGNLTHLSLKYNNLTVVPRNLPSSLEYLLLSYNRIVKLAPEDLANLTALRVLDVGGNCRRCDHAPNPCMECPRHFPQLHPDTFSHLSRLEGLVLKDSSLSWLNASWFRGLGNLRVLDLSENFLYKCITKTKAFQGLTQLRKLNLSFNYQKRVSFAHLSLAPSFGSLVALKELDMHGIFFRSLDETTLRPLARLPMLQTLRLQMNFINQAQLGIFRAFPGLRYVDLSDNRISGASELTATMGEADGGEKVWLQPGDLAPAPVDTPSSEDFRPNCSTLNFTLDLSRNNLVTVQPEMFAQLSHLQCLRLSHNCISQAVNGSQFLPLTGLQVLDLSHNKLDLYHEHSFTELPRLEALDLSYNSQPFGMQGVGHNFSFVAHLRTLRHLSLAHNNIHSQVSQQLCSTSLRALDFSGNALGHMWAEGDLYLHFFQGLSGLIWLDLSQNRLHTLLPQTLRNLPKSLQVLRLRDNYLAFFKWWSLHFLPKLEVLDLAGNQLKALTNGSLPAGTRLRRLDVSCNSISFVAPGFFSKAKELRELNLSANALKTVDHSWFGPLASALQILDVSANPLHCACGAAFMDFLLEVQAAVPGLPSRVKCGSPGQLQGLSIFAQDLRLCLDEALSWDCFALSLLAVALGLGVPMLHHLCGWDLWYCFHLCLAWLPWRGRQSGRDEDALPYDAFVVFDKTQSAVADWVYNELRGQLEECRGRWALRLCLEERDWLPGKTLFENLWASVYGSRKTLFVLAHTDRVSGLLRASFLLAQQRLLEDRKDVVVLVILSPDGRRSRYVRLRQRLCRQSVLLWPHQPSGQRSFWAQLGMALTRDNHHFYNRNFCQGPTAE
Assay type: cell-based
Description: The following tests were carried out in order to determine the activity of the compounds of formula (I) and (Ia) in HEK293-Blue-hTLR-7/8/9 cells assay.
HEK293-Blue-hTLR-9 Cells Assay:
A stable HEK293-Blue-hTLR-9 cell line was purchased from InvivoGen (Cat. #: hkb-htlr9, San Diego, Calif., USA). These cells were originally designed for studying the stimulation of human TLR9 by monitoring the activation of NF-κB. A SEAP (secreted embryonic alkaline phosphatase) reporter gene was placed under the control of the […] minimal promoter fused to five NF-κB and AP-1-binding sites. The SEAP was induced by activating NF-κB and AP-1 via stimulating HEK-Blue hTLR9 cells with TLR9 ligands. Therefore, the reporter expression was declined by TLR9 antagonist under the stimulation of a ligand, such as ODN2006 (Cat. #: tlr1-2006-1, Invivogen, San Diego, Calif., USA), for incubation of 20 hrs. The cell culture supernatant SEAP reporter activity was determined using QUANTI-Blue™ kit (Cat. #: rep-qb1, Invivogen, San Diego, Calif., USA) at a wavelength of 640 nm, a detection medium that turns purple or blue in the presence of alkaline phosphatase.
Then 20 μL of the supernatant from each well was incubated with 180 μL Quanti-blue substrate solution at 37° C. for 2 h and the absorbance was read at 620-655 nm using a spectrophotometer. The signaling pathway that TLR9 activation leads to downstream NF-κB activation has been widely accepted, and therefore similar reporter assay was modified for evaluating TLR9 antagonist.

Row | IC50 [µM] | SMILES
1 | < 0.032 | C[C@@H]1CN(c2ccc(C#N)c3ncccc23)C[C@@H]2CN(CCc3ccc(N4CCNCC4)cc3)CCN21 [Example 7, 5-[(4R,9aS)-4-methyl-8-[2-(4-piperazin-1-ylphenyl)ethyl]-3,4,6,7,9,9a-hexahydro-1H-pyrazino[1,2-a]pyrazin-2-yl]quinoline-8-carbonitrile]
2 | 0.037 | C[C@@H]1CN(c2ccc(C#N)c3ncccc23)C[C@@H]2CN(CCc3ccc(N4CCNCC4)nc3)CCN21 [Example 11, 5-[(4R,9aS)-4-methyl-8-[2-(6-piperazin-1-yl-3-pyridyl)ethyl]-3,4,6,7,9,9a-hexahydro-1H-pyrazino[1,2-a]pyrazin-2-yl]quinoline-8-carbonitrile]
3 | 0.048 | C[C@@H]1CN(c2ccc(C#N)c3ncccc23)C[C@@H]2CN(CCc3ccc(N4C[C@@H](N)[C@@H](F)C4)cn3)CCN21 [Example 19, 5-[(4R,9aS)-8-[2-[5-[(3R,4S)-3-amino-4-fluoro-pyrrolidin-1-yl]-2-pyridyl]ethyl]-4-methyl-3,4,6,7,9,9a-hexahydro-1H-pyrazino[1,2-a]pyrazin-2-yl]quinoline-8-carbonitrile]
4 | 0.056 | C[C@@H]1CN(c2ccc(C#N)c3ncccc23)C[C@@H]2CN(CCc3ccc(N4CCN[C@@H](C)C4)cn3)CCN21 [Example 20, 5-[(4R,9aS)-4-methyl-8-[2-[5-[(3S)-3-methylpiperazin-1-yl]-2-pyridyl]ethyl]-3,4,6,7,9,9a-hexahydro-1H-pyrazino[1,2-a]pyrazin-2-yl]quinoline-8-carbonitrile]
5 | 0.056 | C[C@@H]1CN(c2ccc(C#N)c3ncccc23)C[C@@H]2CN(CCc3cccc(N4CCN[C@@H](C)C4)n3)CCN21 [Example 21, 5-[(4R,9aS)-4-methyl-8-[2-[6-[(3S)-3-methylpiperazin-1-yl]-2-pyridyl]ethyl]-3,4,6,7,9,9a-hexahydro-1H-pyrazino[1,2-a]pyrazin-2-yl]quinoline-8-carbonitrile]
6 | 0.049 | C[C@@H]1CN(c2ccc(C#N)c3ncccc23)C[C@@H]2CN(Cc3cccc(N4CCNCC4)n3)CCN21 [Example 27, 5-[(4R,9aS)-4-methyl-8-[(6-piperazin-1-yl-2-pyridyl)methyl]-3,4,6,7,9,9a-hexahydro-1H-pyrazino[1,2-a]pyrazin-2-yl]quinoline-8-carbonitrile]

Further lines, the compound ahead of its results:

Row | SMILES | IC50 [µM]
7 | C[C@@H]1CN(c2ccc(C#N)c3ncccc23)C[C@@H]2CN(Cc3ccc4c(c3)CNCC4)CCN21 [Example 5, 5-[(4R,9aS)-4-methyl-8-(1,2,3,4-tetrahydroisoquinolin-7-ylmethyl)-3,4,6,7,9,9a-hexahydro-1H-pyrazino[1,2-a]pyrazin-2-yl]quinoline-8-carbonitrile] | < 0.032
8 | C[C@@H]1CN(c2ccc(C#N)c3ncccc23)C[C@@H]2CN(Cc3cnc4c(c3)CNCC4)CCN21 [Example 6, 5-[(4R,9aS)-4-methyl-8-(5,6,7,8-tetrahydro-1,6-naphthyridin-3-ylmethyl)-3,4,6,7,9,9a-hexahydro-1H-pyrazino[1,2-a]pyrazin-2-yl]quinoline-8-carbonitrile] | 0.069
9 | C[C@@H]1CN(c2ccc(C#N)c3ncccc23)C[C@@H]2CN(Cc3ccc(N4CCNCC4)nc3)CCN21 [Example 8, 5-[(4R,9aS)-4-methyl-8-[(6-piperazin-1-yl-3-pyridyl)methyl]-3,4,6,7,9,9a-hexahydro-1H-pyrazino[1,2-a]pyrazin-2-yl]quinoline-8-carbonitrile] | 0.041
10 | C[C@@H]1CN(c2ccc(C#N)c3ncccc23)C[C@@H]2CN(c3cccc4c3CNC4)CCN21 [Example 9, 5-[(4R,9aS)-8-isoindolin-4-yl-4-methyl-3,4,6,7,9,9a-hexahydro-1H-pyrazino[1,2-a]pyrazin-2-yl]quinoline-8-carbonitrile] | 0.079
11 | C[C@@H]1CN(c2ccc(C#N)c3ncccc23)C[C@@H]2CN(Cc3ccc4c(c3)CCNC4)CCN21 [Example 10, 5-[(4R,9aS)-4-methyl-8-(1,2,3,4-tetrahydroisoquinolin-6-ylmethyl)-3,4,6,7,9,9a-hexahydro-1H-pyrazino[1,2-a]pyrazin-2-yl]quinoline-8-carbonitrile] | 0.043
12 | CO[C@@H]1CN(c2ccc(CCN3CCN4[C@@H](C3)CN(c3ccc(C#N)c5ncccc35)C[C@H]4C)cn2)C[C@H]1N [Example 12, 5-[(4R,9aS)-8-[2-[6-[(3R,4R)-3-amino-4-methoxy-pyrrolidin-1-yl]-3-pyridyl]ethyl]-4-methyl-3,4,6,7,9,9a-hexahydro-1H-pyrazino[1,2-a]pyrazin-2-yl]quinoline-8-carbonitrile] | 0.047
13 | CO[C@@H]1CN(c2ccc(CCN3CCN4[C@@H](C3)CN(c3ccc(C#N)c5ncccc35)C[C@H]4C)nc2)C[C@H]1N [Example 13, 5-[(4R,9aS)-8-[2-[5-[(3R,4R)-3-amino-4-methoxy-pyrrolidin-1-yl]-2-pyridyl]ethyl]-4-methyl-3,4,6,7,9,9a-hexahydro-1H-pyrazino[1,2-a]pyrazin-2-yl]quinoline-8-carbonitrile] | 0.04
14 | C[C@@H]1CN(c2ccc(C#N)c3ncccc23)C[C@@H]2CN(Cc3ccc(N4CCCNCC4)nc3)CCN21 [Example 15, 5-[(4R,9aS)-8-[[6-(1,4-diazepan-1-yl)-3-pyridyl]methyl]-4-methyl-3,4,6,7,9,9a-hexahydro-JH-pyrazino[1,2-a]pyrazin-2-yl]quinoline-8-carbonitrile] | 0.041
15 | C[C@@H]1CN(c2ccc(C#N)c3ncccc23)C[C@@H]2CN(c3nccc4c3CCNC4)CCN21 [Example 16, 5-[(4R,9aR)-4-methyl-8-(5,6,7,8-tetrahydro-2,6-naphthyridin-1-yl)-3,4,6,7,9,9a-hexahydro-1H-pyrazino[1,2-a]pyrazin-2-yl]quinoline-8-carbonitrile] | 0.12
16 | C[C@@H]1CN(c2ccc(C#N)c3ncccc23)C[C@@H]2CN(CCc3ccc(N4CC5(CN(C)C5)C4)nc3)CCN21 [Example 22, 5-[(4R,9aS)-4-methyl-8-[2-[6-(6-methyl-2,6-diazaspiro[3.3]heptan-2-yl)-3-pyridyl]ethyl]-3,4,6,7,9,9a-hexahydro-1H-pyrazino[1,2-a]pyrazin-2-yl]quinoline-8-carbonitrile] | 0.047
17 | CO[C@H]1CN(c2ccc(CCN3CCN4[C@@H](C3)CN(c3ccc(C#N)c5ncccc35)C[C@H]4C)cn2)C[C@H]1N [Example 24, 5-[(4R,9aS)-8-[2-[6-[(3R,4S)-3-amino-4-methoxy-pyrrolidin-1-yl]-3-pyridyl]ethyl]-4-methyl-3,4,6,7,9,9a-hexahydro-1H-pyrazino[1,2-a]pyrazin-2-yl]quinoline-8-carbonitrile] | 0.045
18 | CO[C@H]1CN(c2ccc(CCN3CCN4[C@@H](C3)CN(c3ccc(C#N)c5ncccc35)C[C@H]4C)cn2)C[C@@H]1N [Example 25, 5-[(4R,9aS)-8-[2-[6-[(3S,4S)-3-amino-4-methoxy-pyrrolidin-1-yl]-3-pyridyl]ethyl]-4-methyl-3,4,6,7,9,9a-hexahydro-1H-pyrazino[1,2-a]pyrazin-2-yl]quinoline-8-carbonitrile] | 0.064
19 | CO[C@@H]1CN(c2ccc(CCN3CCN4[C@@H](C3)CN(c3ccc(C#N)c5ncccc35)C[C@H]4C)cc2)C[C@H]1N [Example 26, 5-[(4R,9aS)-8-[2-[4-[(3R,4R)-3-amino-4-methoxy-pyrrolidin-1-yl]phenyl]ethyl]-4-methyl-3,4,6,7,9,9a-hexahydro-1H-pyrazino[1,2-a]pyrazin-2-yl]quinoline-8-carbonitrile] | 0.087
